Assay results from patent publication US20120225889A1, “USE OF MACROCYCLIC LACTONE DERIVATIVES FOR THE TREATMENT OF INFLAMMATORY DISORDERS” (PIRAMAL LIFE SCIENCES LIMITED, priority 2010, published 2012).

What was measured:
[1] = test system: C57BL mice with DSS induced colitis; experiment: DSS induced murine model of acute colitis; type: in vivo
Protocol: The assay was designed as in references, Laboratory Investigation, 80, 1541, (2000), and Faseb Journal, 19:792, (2005), the disclosure of which is incorporated by reference for the teaching of the assay.
Normal, in-house bred female C57BL mice weighing […], 8-10 weeks old, were used. The animals were housed in individually ventilated cages, three per cage, throughout the experimental period.
Experimental colitis was induced in mice by replacing drinking water with 3% (w/v) DSS (molecular weight 36,000-50,000, MP Biomedicals Inc., USA) solution. This solution was prepared in water, freshly every alternate day and was made available to the experimental animals ad libitum, from day 0 to day 10. A batch of six naïve animals received water instead of DSS during this period.
The animals were weighed every day and the record of body weights was maintained. The suspension of test compound (was prepared at a concentration of 0.05 mg/mL, in 0.5% (w/v) CMC after mixing with minimum quantity of Tween 80 necessary to wet the compound, and was administered orally, daily once to the animals at a volume of 10 mL/kg (dose=0.5 mg/kg). This treatment was initiated on day 6 and continued up to day 10. During this period, DSS control animals and naïve animals received CMC (mixed in the same proportion with 100 μL of Tween 80) at a dose of 10 mL/kg, daily once.
On day 11, the animals were sacrificed, blood was collected in heparinized tubes and the following parameters were studied; • 1. Rectal bleeding/blood in faeces • 2. Fecal consistency • 3. Bleeding in colon • 4. Colon weight • 5. Colon length • 6. Change in body weight on day 11 from that of day 0 • 7. Blood hemoglobin concentration
The data are represented in the following tables (Table 8, Table 9 and Table 10) as quantifiable parameters, descriptive parameters and actual scores. The descriptive parameters are represented by DAI. DAI is a research tool used to quantify the symptoms of the colitic animals. DAI is used in order to define response of the treatment or remission of the disease. In order to achieve this, various factors are studied. […] DAI is the sum of the scores of all factors.
On the last day of compound treatment (compound of example 7, 0.5 mg/kg, p.o., […]) the animals were euthanized humanely, blood samples were collected and the colon was excised. Anterior part of the colon was washed with normal saline to remove fecal material and then fixed in 10% NBF (Neutral buffered formalin). After 10 days of fixation the colon specimens were trimmed and processed overnight using automated tissue processor. Following day the specimens were blocked in paraffin and exposed to cold shock overnight at −18° C. Sections (5μ) were made from cross section of the colonic lumen and stained with routine Hematoxyllin (Sigma, USA) & Eosin (Loba Chemie, India) and mounted permanently. Slides were dried for 24 h and then graded histologically. The results were expressed as histological scores. Histological analysis was based on various parameters like presence of inflammatory cells, erosions, crypt destruction, edema and overall architectural changes graded on a score of 0 to 3, wherein 0 corresponds to absence, 1 corresponds to changes in 25% of the circumference of the colonic lumen, 2 corresponds to up to 50% and 3 corresponds to more than 50% of colonic circumference getting affected. All the scores were summed up to arrive to a total histological score for each section. Two random sections were graded and mean was calculated.

[2] = test system: BCL2; experiment: Gene expression profile using RTQ-PCR: BCL2; type: cell-based, human; settings: 3 μM, ± SE, N = 3
Protocol: The effect of the compound of example 7 was measured in stimulated untreated cells from the monocytic cell line (THP-1), human monocytes and synovial cells from rheumatoid arthritis patient. The effect of the compound in the THP-1 cell line was measured in terms of gene expression and was expressed as fold changes as compared to the cell stimulated control with no drug treatment.
THP-1 cells, human monocytes and synovial cells were treated with compound of example 7 or vehicle (0.5% DMSO). Total RNA isolation using a commercial RNA extraction kit (Qiagen Corporation, Germany) The first-strand cDNA was synthesized from total RNA using first strand cDNA synthesis kit from Invitrogen Corporation (California, USA). This was followed by real time quantitative polymerase chain reaction (RTQ PCR) using gene specific primers and standard thermal program of initial denaturation at 95° C. for 5 min and cycles of 95° C. for 10 seconds, followed by 60° C. for 30 seconds (Realplex PCR machine from Eppendorf, Germany). Quantitative measurement of products made during PCR cycles was normalized against a housekeeping gene (Actin) and was used to measure the gene expression as fold changes as compared to respective control.

[3] = test system: TNF-α; experiment: Screening in LPS stimulated THP-1 cells: TNF-α; type: cell-based; settings: Homo sapiens, 24 h, ELISA
Protocol: IL-6 (BD Biosciences, USA) production by LPS (Escherchia coli 0127:B8, Sigma, USA) in THP-1 cells (ATCC number: TIB202) was designed as in reference, Journal of Immunology, 151, 5631-5638, (1993), the disclosure of which is incorporated by reference for the teaching of the assay.
THP-1 cells were cultured in RPMI 1640 culture medium (Gibco BRL, UK) containing 100 U/mL penicillin and […] streptomycin, (100× solution, Sigma, USA) containing 10% FBS (JRH Biosciences, USA). 25,000 cells were seeded per well in 96-well plate (Nunc, USA). The cells were differentiated with PMA (Sigma, USA, prepared as 100 μg/mL stock in RPMI and was diluted to 5 ng/mL). The test compound (prepared as 20 mM stock in DMSO and diluted with DMSO to achieve the following final concentrations in the assay: 100, 10, 1, 0.1, 0.01, 0.001 and 0.0001 μM) or vehicle (0.5% DMSO) were added to the cells and the cells were incubated for 30 min at 37° C. LPS (Sigma, USA, prepared as 1 mg/mL stock in PBS) was added to achieve a final concentration of 1 μg/mL. Plates were incubated at 37° C. for 24 h at 5% CO2. Supernatants were harvested, and assayed for TNF-α and IL-6 by ELISA as described by the manufacturer (BD Biosciences, USA). Percent inhibition of cytokine release compared to the control was calculated. The IC50 values were calculated by a nonlinear regression method.

[4] = day 11, DSS mice, 0.5 mg/kg orally daily once, day 6 to day 10
[5] = score 0-3 (Table 9), DSS mice, 0.5 mg/kg orally daily once, day 6 to day 10

C/C=C/C(O)C(C)/C=C/C(=N\O)C(C)C(O)C(C)C1OC(=O)/C(OC)=C/C(C)=C/C(C)C(O)C(CC)C(O)C(C)C/C(C)=C/C=C/C1OC (stereo not drawn) [Compound of example 7, (3Z,5E,13E,15E)-18-((5Z,6E,10E)-3,9-Dihydroxy-5-(hydroxymino)-4,8-dimethyldodeca-6,10-dien-2-yl)-9-ethyl-8,10-dihydroxy-3,17-dimethoxy-5,7,11,13-tetramethyl oxacyclooctadeca-3,5,13,15-tetraen-2-one]
Group mean histological score (colon) ([1]; 0.5 mg/kg, p.o., b.i.d, DSS control 7.50+0.96): 5.33+0.99 | histological damage (colon) ([1]; DSS induced colitic C57BL mice): confer protection against histological damage | Hbg % ([1]; blood hemoglobin, day 11, DSS mice, 0.5 mg/kg orally daily once, day 6 to day 10): 10.77 ± 0.48 g % | Colon length [1, 4]: 7.33 ± 0.30 | Colon weight mg [1, 4]: 273.8 ± 8.93 mg | Colon weight mg per cm [1, 4]: 37.6 ± 1.8 mg per cm | Change in body weight ([1]; day 11 from day 0, DSS mice, 0.5 mg/kg orally daily once, day 6 to day 10): +0.57 ± 0.28 | severity of colitis ([1]; orally 0.5 mg/kg, mice with DSS induced colitis): reduces the severity of colitis | Blood in colon score [1, 5]: 0.61 ± 0.30 | Fecal consistency score [1, 5]: 1.0 ± 0.50 | Rectal bleeding score [1, 5]: 0.18 ± 0.15 | Disease activity index ([1]; sum of the scores of all features, DSS mice, 0.5 mg/kg orally daily once, day 6 to day 10): 1.67 ± 0.47 | BCL2 gene expression ([2]; Human monocytes, 3 h): −1.7 + 0.4 log fold change | BCL2 gene expression ([2]; THP-1 cells, 12 h): −1.3 ± 0.8 log fold change | IC50 [3]: 18 µM
